Assay results as given in article PMC12314892, “Macrocyclic Phage Display for Identification of Selective Protease Substrates” (Journal of the American Chemical Society, 2025).
“Also recorded” adds a separate entry of the source. *1 amine or outer side, *2 acyl side, *3 side chain or, on linkers, in order; H or OH if unused. Where a SMILES comes first, the peptide text is derived from it. Bridges are numbered along the chain shown (N, C = ends). The star is where a group is joined. X1 = NC(=O)Cc1cc(=O)oc2cc(NC(=O)[C@@H]3CCCN3C(=O)Cn3nc(C[*:1])cc3C[*:2])ccc12; X2 = NC(=O)Cc1cc(=O)oc2cc(NC(=O)[C@@H]3CCCN3C(=O)Cn3nc(C[*:2])cc3C[*:1])ccc12; AMC = Cc1cc(=O)oc2cc(N*)ccc12; Cbz = O=C(OCc1ccccc1)*

Test system: HEK293 Tet-Off cells with inducible FAPα expression
Assay: Live-cell substrate assay
Assay type: cell-based
Details: triplicate; for substrate cleavage in cells after inhibitor pre-treatment, in words: cells pre-treated 30 min at 37 °C with 1 μM UAMC-1100 (FAPα) or VbP (DPP4) before 200 μM substrate; for substrate cleavage in cells (mean slope RFU per minute), in words: HEK293 FAP+ vs doxycycline-suppressed FAP- cells, 1400 cells per well in PBS, 200 μM substrate, 37 °C, 90 min
Description: 7.5. The following commercial substrates were used: zGP-AMC (Bachem,Catalog No.: […]
conducted in Greiner Bio-One black microplates of 384 wells and polystyrene F-bottom (Catalog No.: 784076). All compounds were dissolved in DMSO at a concentration of 10 mM and then diluted into the respective buffer to the desired final concentration. […]
ACC substrates. […]
HEK tet-off FAPα stable clonal cell line, received from the group of Jan Konvalinka, IOCB Prague, was cultured in IMDM medium with L-glutamine (Sigma-Aldrich, 51471C-1000ML), and supplemented with 10% […] and antibiotics – Geneticin G418 400 μg/ml (Roche, G418-RO) and Puromycin 0.5 μg/ml (Corning, MT61385RA) or Doxycycline 100 ng/ml (Sigma-Aldrich, D9891-1G). In general, cells were passaged at least two times after thawing before their use in cellular […]
assays. FAPα expression was suppressed with Doxycycline for at least a week prior to an […]
Live-cell substrate assay
Cells were grown to near confluency and harvested via trypsinization. After dissociation, extra media with serum was added to prevent further trypsinization. To collect the cells, those were centrifuged for 3 min at 500G and media removed. Cells were washed a total of three times with PBS and resuspended in PBS to 100 cells per μL. To perform the activity assay 14 μL of suspended cells in PBS (100 cell/μL) were plated in a black 384-well low volume “V” bottom plate (total of 1400 cells per well) and pre-treated with 2 μL of either vehicle or inhibitors (1 μM final concentration) for 30 min at 37 °C. DMSO was used as the vehicle. The inhibitors used were […]
DPP4 activity, respectively, in addition to other homologous proteases. After this time, 4 μL of the desired substrate was added to a final concentration of 200 μM and the fluorescence was recorded immediately. Fluorescence was measured using a Cytation 3 plate reader (BioTek). All experiments have at least three technical replicates. All assays were conducted at 37°C for 90 min, unless otherwise noted. Fluorescence measurements were performed at ex/em, 355/460 nm for ACC substrates. The substrates velocity was quantified by calculating the slope of the linear […]
3.2 Phage Display Methodology
The library and panning protocol was adapted from Ekanayake et. al.2 […]
The phage encoded library has the terminal sequence AACXXXXXXXCG. The complexity of the library is 1x109. In general a minimum of 5x1010 PFU were used for panning to have 50 copies of each sequence represented at the beginning of panning.
General reagents for phage display
15.5 g of 2X YT broth (1.6% tryptone, 1.0% yeast extract, 0.5% sodium chloride) 500mL of MilliQ water in a 2L flask, autoclaved.
YT media with 30 μg/mL final concentration of chloramphenicol (CA)
15.5 g of 2X YT broth (1.6% tryptone, 1.0% yeast extract, 0.5% sodium chloride) 500 mL of MilliQ water in a 2L flask, autoclaved. Let it cool to room temperature. Add 500 μL of 30 mg/mL chloramphenicol in ethanol.
Agar plates of YT media with chloramphenicol (30 μg/mL CA)
Weight out 31 g of 2X YT broth (1.6% tryptone, 1.0% yeast extract, 0.5% sodium chloride), 15 g of agar and add 1000 mL of MilliQ water. Autoclave. Let it cool down to approximately 55°C and add 1000 μL of 30 mg/mL CA in ethanol. Mix and pour into plates under sterile conditions.

Compound	substrate cleavage in cells after inhibitor pre-treatment, in words	substrate cleavage in cells (mean slope RFU per minute), in words
Cc1cc(=O)oc2cc(NC(=O)[C@@H]3CCCN3C(=O)CNC(=O)OCc3ccccc3)ccc12 [zGP-AMC] (Cbz-Gly-Pro-{AMC})	processed in the presence of both inhibitors; also recorded: produced signals in HEK cells even when target proteases were chemically inhibited	
CC(C)C[C@@H]1NC(=O)[C@H](CC(N)=O)NC(=O)[C@H](CCC(N)=O)NC(=O)[C@H](Cc2ccccc2)NC(=O)[C@H](CO)NC(=O)[C@H](C(C)C)NC(=O)[C@@H](N)CSCc2cc(nn2CC(=O)N2CCC[C@H]2C(=O)Nc2ccc3c(CC(N)=O)cc(=O)oc3c2)CSC[C@@H](C(=O)NCC(N)=O)NC(=O)[C@H](CC(=O)O)NC1=O [FAP-33.2] (H-CVSFQNLDCG-NH2; linker 1-9 via X2; N-terminus assumed)		no activity in cells
Cc1cc(=O)oc2cc(NC(=O)[C@@H]3CCCN3C(=O)CN)ccc12 [GP-AMC] (H-Gly-Pro-{AMC})	produced signals in HEK cells even when target proteases were chemically inhibited	
CC(C)[C@@H]1NC(=O)[C@@H](N)CSCc2cc(n(CC(=O)N3CCC[C@H]3C(=O)Nc3ccc4c(CC(N)=O)cc(=O)oc4c3)n2)CSC[C@@H](C(=O)NCC(N)=O)NC(=O)[C@H](CC(=O)O)NC(=O)[C@H](C)NC(=O)[C@H](CC(N)=O)NC(=O)[C@H](CCC(N)=O)NC(=O)[C@H](Cc2ccccc2)NC(=O)[C@H](CO)NC1=O [FAP-33.2A6] (H-CVSFQNADCG-NH2; linker 1-9 via X1; N-terminus assumed)	hydrolysis suppressed by the FAPα inhibitor UAMC1100 but not by the DPP4 inhibitor VbP	selectively cleaved in FAP+ cells
